Data on two molecules can be found in patent US11528908B2, “Acaricide and application thereof” (priority 2018, dated 2022).

In data set [1] the test system is adult citrus red mites (Panonychus citri Mcgregor). The data set can be described thus: Glass slide method, mortality of adult mites (Table 7). Type of data set: in vivo. As to the method:
By using the glass slide method, the effects of the 1500-fold diluted solution and the 3000-fold diluted solution of the acaricide prepared in embodiment 3, the 1500-fold diluted solution of the ethoxy-modified trisiloxane, and the 1500-fold diluted solution of the solid sodium dioctyl sulfosuccinate prepared in embodiment 1 on the adult citrus red mites (Panonychus citri Mcgregor) were tested. Each treatment group had 50 citrus red mites, and the measurement was repeated 4 times, with water as a control.

The test system of data set [2] is mites. The data set can be described thus: Acaricidal effect of ethoxy-modified trisiloxane alone (statement in summary). Particulars: content 0.667 g/L to 1.0 g/L.

ethoxy-modified trisiloxane: in data set [1] (1500× dilution, 10 minutes after spraying), the “Mortality after 10 minutes” value was determined as 15.42dD %. In data set [1] (1500× dilution, 72 hours after spraying), the “Mortality after 72 hours” value came to 28.84dD %. In addition, the damage to plants entry in data set [2] is on record as “serious pesticide damage”. For the same molecule, the “acaricidal rate for 72 hours” value in data set [2] (high concentration) is listed as “about 30%”.
Regarding `CCCCCCCCOC(=O)CC(C(=O)OCCCCCCCC)S(=O)(=O)O.[Na]` (stereo not drawn) [sodium dioctyl sulfosuccinate], in data set [1] (in vivo), the “Mortality after 10 minutes” value came to 20.35cC % and the “Mortality after 72 hours” value came to 62.45cC %.
